Assay results as given in publication PMC11428593 (Antibiotics, 2024).
Values joined by “and” are separate entries in the source; they are usually repeats but may differ in a detail not shown here. Equal entries are not always repeated. “Also recorded” adds a separate entry of the source. Where two headings read alike, the source gives them in different places.

What was measured:
[1] = test system: 3T3 mouse embryonic fibroblast cells; test: MTT cytotoxicity assay; assay type: cell-based; conditions: 3T3 cells; for IC50: Mus musculus, NIH3T3, 24 h
Experimental: To gauge the potential for toxicity of the new alkyl pyridinol derivates, we tested their cytotoxicity by examining the metabolic activity of 3T3 mouse embryonic fibroblast cells using the tetrazolium dye 3-(4,5-dimethylthiazol-2-yl)-2,5-diphenyltetrazolium bromide (MTT), as has been done before. The dye is reduced by NAD(P)H-dependent cellular oxidoreductases, resulting in the formation of the insoluble formazan with its purple color, which can be quantified. 3T3 cells were treated with different concentrations of the alkyl pyridinol compounds for 24 h, and the absorbance of the MTT-treated cell culture supernatant was measured at 540 nm. Absorbances were plotted against concentrations of the compound added (Supplementary Figure S2), and IC50, the concentration of a drug required for 50% metabolic inhibition, was calculated for each compound. […] However, the concentrations at which these compounds compromise 3T3 mouse embryonic fibroblast cells are well above their reported MICs (Table 2).
3T3 cells (male mouse embryonic fibroblast Flp-In cells, Thermo Fisher, Waltham, MA, USA) were cultured in D-MEM (Corning, Corning, NY, USA) supplemented with 10% Fetal Clone III (Cytiva Hyclone, Bengaluru, India) and L-Glutamine (Alfa Aesar, Haverhill, MA, USA) at 37 °C and 5% CO2. To determine the compound’s toxicity, 3T3 cells were seeded at a density of 10,000 cells/well into 96-well plates (Fisherbrand, Waltham, MA, USA) and cultured as described above. After 16 h, the culture medium was extracted and replaced by supplemented D-MEM without phenol red (Corning, Glendale, AZ, USA) containing individual compounds in the indicated concentrations. Furthermore, 1% sodium dodecyl sulfate (SDS) and 2% dimethyl sulfoxide (DMSO), equivalent to the volume of the DMSO in the highest compound concentration, were used as the cell death and vehicle control, respectively. Moreover, 16 h after compound treatment, the culture medium was extracted again and replaced by fresh supplemented D-MEM without phenol red. Subsequently, 10 µL of 5 mg/mL MTT reagent (Alfa Aesar, Haverhill, MA, USA), dissolved in DMSO, was added to each well, and the cells were incubated for 2 h at 37 °C and 5% CO2. Next, 85 µL of the culture supernatant was removed from each well, mixed with 50 µL of DMSO, and incubated in an optical grade 96-well plate (Fisherbrand, Waltham, MA, USA) in a shaking incubator at 37 °C and 250 rpm. The absorbance of the MTT-treated cell culture supernatant was measured at 540 nm in an ELx808 plate reader (Biotek, Winooski, VT, USA).

[2] = test system: S. aureus strain USA300LAC biofilm; test: Inhibition of biofilm formation (crystal violet); assay type: cell-based, Staphylococcus aureus
Experimental: (§1) The establishment of a bacterial biofilm usually begins with pathogen attachment to biotic and abiotic surfaces, and S. aureus is notorious for its ability to form biofilms on surfaces, such as implants and catheters, which presents a unique treatment challenge.
(§2) Overnight cultures of S. aureus strain USA300LAC were diluted into fresh TSB to an OD600nm = 0.001 and incubated aerobically at 37 °C until the mid-log phase. (A) To detect effects on biofilm formation, cultures were diluted to an OD600nm = 0.0001 in the presence and absence of JC-01-074 and vancomycin at concentrations of 0.5–4× MIC, respectively. (B) To detect effects on biofilm eradication, cultures were diluted to an OD600nm = 0.0001 and incubated under static conditions for 24 h, after which planktonic cells were removed, and the preformed biofilms were washed twice with PBS. […] Biofilm mass was quantified after 20 h via crystal violet staining. One-way ANOVA, Dunnett’s multiple-comparison test (* p < 0.05, ** p < 0.01); (n = 3, ±S.D.).
The overnight USA300LAC cultures were diluted 1000-fold into the fresh TSB media and incubated under shaking conditions at 37 °C until the mid-log phase. The cultures were subsequently diluted to approximately 4 × 10^6 CFU/mL and dispended into 96-well polystyrene plates (Alkali Scientific, Fort Lauderdale, FL, USA) containing DMSO (control), vancomycin (0.5–4× MIC), or the indicated alkyl pyridinol compounds (0.5–4× MIC) and sealed with a breath-easy membrane (Fisherbrand, Waltham, MA, USA). The peripheral wells were filled with PBS to limit evaporation. The plates were incubated without agitation at 37 °C for 24 h, following which the planktonic cells were removed. The biofilms were washed twice with PBS, stained with 0.1% crystal violet (CV) for 15 min, and washed again twice with PBS to remove the unbound CV dye. CV bound to biofilm cells was extracted with 30% (v/v) glacial acetic acid, and the O.D.595nm was determined.

[3] = test system: S. aureus strain USA300LAC established biofilm; test: Biofilm eradication assay (crystal violet); assay type: cell-based, Staphylococcus aureus; conditions: at or below 4× MIC, 24 h, in words
Experimental: as §1, §2
The overnight USA300LAC cultures were diluted 1000-fold into the TSB media and incubated under shaking conditions at 37 °C until the mid-log phase. […] After 24 h of incubation, biofilm eradication was assessed via CV staining at 595 nm in a Tecan 200 Infinite Pro microplate reader (Tecan, Morgan Hill, CA, USA).

[4] = 24 hours, one value per biological replicate, read-out: IC50 of single biological replicates (Figure S2)
[5] = 24 h treatment, mean ± S.D., read-out: IC50

Row | Compound | IC50 of single biological replicates (Figure S2) ([1]; 24 hours, one value per biological replicate, listed as JC-01-72) | IC50 [1, 4] [µg/mL] | IC50 [1, 5] [µM] | reduction of biofilm formation ([2]; 0.5–4× MIC, dose-dependent) | inhibition of biofilm formation ([2]; up to 4× MIC, in words) | eradication of established biofilms [3] | IC50 of single biological replicates (Figure S2) ([1]; 24 hours, one value per biological replicate, listed as JC-01-74)
1 | CCCCCCCCCC#Cc1cncc(O)c1 [JC-01-072] | 41.1 µg/ml and 27.6 µg/ml and 35 µg/ml | 47.1 | 153 ± 33.8 |  |  |  | 
2 | CCCCCCCCCC#Cc1cccc(O)n1 [JC-01-074] |  | 22.9 | 104 ± 9.4 | 60–70% | very potent in inhibiting their formation | has no effect once biofilms have been established; also recorded: no significant effects on the already established biofilms | 27.1 µg/ml and 26.7 µg/ml
